Patent US20040180880A1, “Piperazine and piperidine derivatives” (priority 2002, published 2004)
Where a name gives a salt, the structure may show the parent alone.

Assays:
[1] = test system: rat embryo ventral mesencephalic (VM) cells; assay: Neuroprotection assay: NMDA injury of ventral mesencephalic cultures, read by high affinity 3H-dopamine uptake; type: cell-based; conditions: embryonic day 15 Sprague-Dawley rat VM cells, NMDA 100-400 μM for 20 hours, read-out: DAT (VM) IC50
Text: The neuroprotective activity of the compounds of this invention may be assayed using rat embryo ventral mesencephalic cells in culture which are subsequently exposed to the glutamate receptor agonist NMDA. This assay is described in detail in the example section.
The ventral mesencephalic region was dissected out of embryonic day 15 Sprague-Dawley rat embryos (Harlan), dissociated into single cell suspension by a combination of trypsinization and trituration (Costantini et al., Neurobiol Dis., pp. 97-106 (1998). Dissociated VM cells were plated into poly-L-ornithine-coated 96-well plates at a density of 85,000 cells/well in 100 uL of DMEM supplemented with 18% heat-inactivated horse serum, 0.24% glucose, 2 mM glutamine and 50 u/ml pernicillin/streptomycin and incubated in a 5% CO2 incubator. After one day in culture (DIV1), the medium was replaced with 100 μL of a defined medium (DMEM supplemented with 1×N2 cocktail (Gibco-BRL), 0.12% glucose, 2 mM glutamine, and […] penicillin/streptomycin) containing DMSO or various concentrations of the compounds of this invention. On DIV5, neuroexcitotoxic injury was induced by the addition of various concentrations of the glutamate receptor agonist NMDA (100-400 μM). Cultures were incubated with the neurotoxin for 20 hours and the effects of neurophilin compounds were assessed using high affinity ^3H-dopamine uptake according to a procedure published by Park and Mytilineou [Brain Res., 599, pp. 83-97 (1992)].

| SMILES | IC50 [1] [nM] | melting point [°C] |
| --- | --- | --- |
| O=C(C1CCCCN1)N1CCN(C(c2ccc(F)c(F)c2)c2ccc(F)c(F)c2)CC1 (stereo not shown) [Compound 17, (4-(Bis-(3,4-difluoro-phenyl)-methyl)piperazine-1-yl)-piperidin-2-yl-methanone] | 6 | – |
| O=C(C1CCCCN1)N1CCN(C(c2ccc(F)cc2)c2ccc(F)cc2)CC1 (stereo not shown) [Compound 28, (4-(Bis-(4-fluoro-phenyl)-methyl)piperazine-1-yl)-piperidin-2-yl-methanone dihydrochloride] | 12 | – |
| O=C(C1CCCCN1)N1CCN(C(c2ccc(F)cc2F)c2ccc(F)cc2F)CC1 (stereo not shown) [Compound 9, {4-[Bis-(2,4-difluoro-phenyl)-methyl]-piperazin-1-yl}-piperidin-2-yl-methanone] | 145 | – |
| O=C(C1CCCCN1)N1CCN(C(c2ccc(F)cc2F)c2ccc(F)cc2F)CC1 (stereo not shown) (as salt: hydrochloride) [Compound 9, {4-[Bis-(2,4-difluoro-phenyl)-methyl]-piperazin-1-yl}-piperidin-2-yl-methanone] | – | 84 to 85 |
